Test results reported in patent US7557101B2, “4,5,6,7-tetrahydro-thieno[3,2-c] pyridine derivatives” (Hoffman-La Roche Inc., priority 2006, dated 2009).
pKi: −log10 of the molar value.

Target: T1, human H3R (Homo sapiens, UniProt Q9Y5N1)
T1 construct: expressed in transfected cells; host or cells: CHO cells
Assay: Competition binding assay with 3H-(R)α-methylhistamine on membranes of the human H3R-CHO cell line
Conditions: competition with 3H(R)α-methylhistamine (1 nM), Ki calculated from IC50 by Cheng-Prusoff
Experimental: Binding Assay with ^3H—(R)α-methylhistamine
Saturation binding experiments were performed using HR3-(CHO membranes prepared as described in Takahashi, K, Tokita, S., Kotani, H. (2003) J. Pharmacol. Exp. Therapeutics 307, 213-218.
An appropriate amount of membrane (60 to 80 μg protein/well) was incubated with increasing concentrations of ^3H(R)α-Methylhistamine di-hydrochloride (0.10 to 10 nM). Non specific binding was determined using a 200 fold excess of cold (R)α-Methylhistamine dihydrobromide (500 nM final concentration). The incubation was carried out at room temperature (in deep-well plates shaking for three hours). The final volume in each well was 250 μl. The incubation was followed by rapid filtration on GF/B filters (pre-soaked with 100 μl of 0.5% PEI in Tris 50 mM shaking at 200 rpm for two hours). The filtration was made using a cell-harvester and the filter plates were then washed five times with ice cold washing buffer containing 0.5 M NaCl. After harvesting, the plates were dried at 55° C. for 60 min, then we added scintillation fluid (Microscint 40, 40 microl in each well) and the amount of radioactivity on the filter was determined in Packard top-counter after shaking the plates for two hours at 200 rpm at room temperature.
Binding Buffer: 50 mM Tris-HCl pH 7.4 and 5 mM MgCl2×6H2O pH 7.4. Washing Buffer: 50 mM Tris-HCl pH 7.4 and 5 mM MgCl2×6H2O and 0.5 M NaCl pH 7.4.
Indirect measurement of affinity of H3R inverse agonists: twelve increasing concentrations (ranging from 10 μM to 0.3 nM) of the selected compounds were always tested in competition binding experiments using membrane of the human H3R—CHO cell line. An appropriate amount of protein, e.g. approximately 500 cpm binding of RAMH at Kd, were incubated for 1 hour at room temperature in 250 μl final volume in 96-well plates in presence of ^3H(R)α-methylhistamine (1 nM final concentration=Kd). Non-specific binding was determined using a 200 fold excess of cold (R)α-methylhistamine dihydrobromide.
All compounds were tested at a single concentration in duplicate. […] The concentration at which 50% inhibition of the radioligand ^3H(R)α-methylhistamine is obtained (the IC50) is determined from the linear regression of a plot of the logarithm of the concentration versus percent inhibition measured for the different concentrations. Ki's were calculated from IC50 based on Cheng-Prusoff equation (Cheng, Y, Prusoff, W H (1973) Biochem Pharmacol 22, 3099-3108): Ki=IC50/[1+D/Kd] wherein D is the concentration of the radioligand and Kd is the binding constant for the radioligand binding to the receptor under the conditions used in the competition experiment.

T1 sequence (Q9Y5N1 whole entry): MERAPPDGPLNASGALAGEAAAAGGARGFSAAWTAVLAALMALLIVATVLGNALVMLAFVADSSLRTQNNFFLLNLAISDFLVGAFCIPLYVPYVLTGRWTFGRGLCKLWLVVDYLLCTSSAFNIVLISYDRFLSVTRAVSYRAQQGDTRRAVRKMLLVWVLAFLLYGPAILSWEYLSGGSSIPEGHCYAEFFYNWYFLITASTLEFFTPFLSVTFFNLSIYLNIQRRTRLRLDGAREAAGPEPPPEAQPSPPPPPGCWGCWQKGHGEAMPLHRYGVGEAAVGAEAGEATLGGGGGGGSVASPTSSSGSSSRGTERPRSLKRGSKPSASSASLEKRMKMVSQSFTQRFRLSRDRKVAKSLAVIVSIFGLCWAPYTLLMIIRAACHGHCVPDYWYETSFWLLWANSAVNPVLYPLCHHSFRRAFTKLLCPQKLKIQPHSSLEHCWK

In order of rising pKi:
1. CCCC(=O)N1CCc2sc(OCCCN3CCCCC3)cc2C1 [Example 33, 1-[2-(3-piperidin-1-yl-propoxy)-6,7-dihydro-4H-thieno[3,2-c]pyridin-5-yl]-butan-1-one]  7.35
2. O=C(N1CCOCC1)N1CCc2sc(OCCCN3CCCCC3)cc2C1 [Example 1, Morpholin-4-yl-[2-(3-piperidin-1-yl-propoxy)-6,7-dihydro-4H-thieno[3,2-c]pyridin-5-yl]-methanone]  7.45
3. O=C(NCc1ccccc1)N1CCc2sc(OCCCN3CCCC3)cc2C1 [Example 48, 2-(3-pyrrolidin-1-yl-propoxy)-6,7-dihydro-4H-thieno[3,2-c]pyridine-5-carboxylic acid benzylamide]  7.50
4. Cc1ccccc1S(=O)(=O)N1CCc2sc(OCCCN3CCCC3)cc2C1 [Example 56, 2-(3-pyrrolidin-1-yl-propoxy)-5-(toluene-2-sulfonyl)-4,5,6,7-tetrahydro-thieno[3,2-c]pyridine]  7.56
5. CC1CCC(CC(=O)N2CCc3sc(OC4CCN(C(C)C)C4)cc3C2)CC1 (centres unmarked) [Example 90, 1-[2-(1-isopropyl-pyrrolidin-3-yloxy)-6,7-dihydro-4H-thieno[3,2-c]pyridin-5-yl]-2-(4-methyl-cyclohexyl)-ethanone]  7.66
